Among the data in patent publication EP4610262A1, “MACROCYCLIC COMPOUND AS CDK9 INHIBITOR AND USE THEREOF” (Artivila Biopharma, priority 2022, dated 2024) are inhibition values, retold here.

Each structure is given as a SMILES string. Bounds are passed on as bounds.

Assay type in all cases: biochemical
Test [1] has as its target RET (Homo sapiens, UniProt P07949). The test can be described thus: Kinase selectivity, inhibition rate at 10 nM (caliper mobility shift assay). As to conditions: compound at 10 nM. Here is the method:
(§1) Compounds were tested at a concentration of 10 nM with detection in duplicate wells, or tested at 10 concentrations starting from 10 µM with three-fold serial dilutions, with detection in duplicate wells.
(§2) The inhibitory effect of the compounds on the activity of CDK9 protein kinase was detected by the caliper mobility shift assay method. 250 nL of the compound at 100-fold final concentration was transferred to a target 384-well-plate with a dispenser Echo 550. A kinase solution at 2.5-fold final concentration was prepared using 1× kinase buffer. 10 µL of the kinase solution at 2.5-fold final concentration was added to the compound well and positive control well respectively. 10 µL of 1× kinase buffer was added to the negative control well. The 384-well plate was centrifuged at 1000 rpm for 30 seconds and incubated at room temperature for 10 minutes. A mixed solution of ATP and kinase substrate at 5/3-fold final concentration was prepared with 1× kinase buffer, and to the 384-well plate was added with 15 µL per well of the mixed solution of ATP and substrate at 5/3-fold final concentration to start the reaction. The plate was centrifuged at 1000 rpm for 30 seconds, shaken to mix evenly, and incubated at room temperature for a corresponding time. 30 µL of detection stopping solution was added to terminate the kinase reaction. The 384-well plate was centrifuged at 1000 rpm for 30 seconds and shaken to mix evenly. The conversion rate was read with Caliper EZ Reader. The percent conversion inhibition rate = (% positive control conversion rate mean - % sample conversion rate / (% positive control conversion rate mean - % negative control conversion rate mean). Among them: negative control wells represent the conversion rate readings of kinase buffer background wells; positive control wells represent the conversion rate readings of wells without inhibition by compound. With the log value of concentration as the x-axis and the percentage inhibition rate as the y-axis, a dose-response curve was fitted using the log (inhibitor) vs. response -Variable slope of the analysis software GraphPad Prism 5 to obtain the IC50 value of each compound on enzyme activity. Calculation formula: y=Bottom + (Top-Bottom)/(1+10^((LogIC50-x) × hillslope)), x: logarithm of inhibitor concentration; y: % inhibition rate.
(§3) According to the description of the above experiment on kinase activity inhibition, some compounds were tested for their selective inhibition rate against the kinases of CDK7, CDK9, JAK1, JAK2, JAK3, ITK, RET, TYK2, and LRRK2 at 10 nM. The results are shown in Table 3 below: (Inhibition rate range: A>50%; B: 25-49%; C: <25%): […]

Test [2] addresses JAK2 (Homo sapiens, UniProt O60674). The test is described as above. The conditions noted are these: compound at 10 nM. Here is the method:
as §1, §2, §3

The target of test [3] is ITK (Homo sapiens, UniProt Q08881). Described as above. The conditions noted are these: compound at 10 nM. As to the method: as §1, §2, §3
Test [4] deals with CDK7 (Homo sapiens, UniProt P50613). The test is described as above. As to conditions: compound at 10 nM. As to the method:
as §1, §2, §3

For test [5], the target named is JAK3 (Homo sapiens, UniProt P52333). Described as above. The conditions noted are these: compound at 10 nM. Here is the method: as §1, §2, §3
The target of test [6] is JAK1 (Homo sapiens, UniProt P23458). The test is described as above. As to conditions: compound at 10 nM. Here is the method:
as §1, §2, §3

Test [7] addresses LRRK2 (Homo sapiens, UniProt Q5S007). The test is described as above. The conditions noted are these: compound at 10 nM. As to the method:
as §1, §2, §3

Test [8] has as its target CDK1/CycA2 (Homo sapiens, UniProt P06493). The test can be described thus: CDK kinase selectivity (HTRF / ADP-Glo). The conditions noted are these: compound at 0.1 µM; read-out: Inhibition rate CDK1/CycA2. As to the method:
(§4) The selectivity of the test compounds against CDK kinases was detected. The compounds were tested at a concentration of 0.1 µM, and the inhibition rate of CDK kinases by the compounds was detected in duplicate wells, mainly using HTRF and ADP-Glo detection methods.
(§5) The HTRF detection method was conducted as follows: 2-fold ATP/substrate solution and 2-fold kinase/metal ion solution were prepared respectively with a kinase reaction buffer, and 25 nL of diluted compound solution was transferred to a 384-well detection plate with Echo 655. After centrifugation, the plate was added with 2.5 µL of 2-fold kinase/metal ion solution and incubated at 25°C for 10 minutes. After 10 minutes, 2.5 µL of 2-fold substrate/ATP solution was added to the 384-well detection plate and incubated at 25°C for 60 minutes. 2 kinase detection reagent (XL665 and antibody) was prepared with detection buffer, and 5 µL of kinase detection reagent was added to the 384-well detection plate and incubated at 25°C for 60 minutes. The fluorescence signals at 620 nm (Cryptate) and 665 nm (XL665) were read by the microplate reader, and the ratio and the inhibition rate of kinase activity by the compound were calculated.
(§6) The ADP-Glo detection method was conducted as follows. 2-fold ATP/substrate solution and 2-fold kinase/metal ion solution were prepared respectively with a kinase reaction buffer. 20 nL of diluted compound solution was transferred to a 384-well detection plate by Echo 655. After centrifuged, the 384-well detection plate was added with 2 µL of 2 × kinase/metal ion solution, and incubated at 25°C for 10 minutes. After 10 minutes, the 384-well detection plate was added with 2 µL of 2 × substrate/ATP solution and incubated at 25°C for 60 minutes. 4 µL of ADP-Glo reagent was added to each well and incubated at room temperature for 40 minutes. 10 µL of ADP detection reagent was added to each well and incubated at room temperature for 40 minutes. The chemiluminescent signal was detected with a microplate reader and the inhibition rate of kinase activity was calculated.
Background: Time-resolved FRET reads energy transfer from a long-lived donor to a nearby acceptor.

The target in test [9] is CDK16/CyclinY (Homo sapiens, UniProt Q00536). The test can be described thus: CDK kinase selectivity (HTRF / ADP-Glo). As to conditions: compound at 0.1 µM; read-out: Inhibition rate CDK16/CyclinY. Here is the method: as §4, §5, §6
For test [10], the target named is CDK1/CycE1 (Homo sapiens, UniProt P06493). The test can be described thus: CDK kinase selectivity (HTRF / ADP-Glo). As to conditions: compound at 0.1 µM; read-out: Inhibition rate CDK1/CycE1. Here is the method:
as §4, §5, §6

In test [11] the target is CDK3/CycE1 (Homo sapiens, UniProt Q00526). The test can be described thus: CDK kinase selectivity (HTRF / ADP-Glo). The conditions noted are these: compound at 0.1 µM; read-out: Inhibition rate CDK3/CycE1. Here is the method:
as §4, §5, §6

The target of test [12] is CDK13/CyclinK (Homo sapiens, UniProt Q14004). The test can be described thus: CDK kinase selectivity (HTRF / ADP-Glo). As to conditions: compound at 0.1 µM; read-out: Inhibition rate CDK13/CyclinK. As to the method:
as §4, §5, §6

Test [13] addresses CDK6/CycD 1 (Homo sapiens, UniProt Q00534). The test can be described thus: CDK kinase selectivity (HTRF / ADP-Glo). The conditions noted are these: compound at 0.1 µM; read-out: Inhibition rate CDK6/CycD 1. As to the method:
as §4, §5, §6

Test [14] deals with CDK5/p25NCK (Homo sapiens, UniProt Q00535). The test can be described thus: CDK kinase selectivity (HTRF / ADP-Glo). The conditions noted are these: compound at 0.1 µM; read-out: Inhibition rate CDK5/p25NCK. Here is the method: as §4, §5, §6
For test [15], the target named is CDK6/CycD3 (Homo sapiens, UniProt Q00534). The test can be described thus: CDK kinase selectivity (HTRF / ADP-Glo). The conditions noted are these: compound at 0.1 µM; read-out: Inhibition rate CDK6/CycD3. Here is the method: as §4, §5, §6

Chain of JAK3 (P52333 whole entry): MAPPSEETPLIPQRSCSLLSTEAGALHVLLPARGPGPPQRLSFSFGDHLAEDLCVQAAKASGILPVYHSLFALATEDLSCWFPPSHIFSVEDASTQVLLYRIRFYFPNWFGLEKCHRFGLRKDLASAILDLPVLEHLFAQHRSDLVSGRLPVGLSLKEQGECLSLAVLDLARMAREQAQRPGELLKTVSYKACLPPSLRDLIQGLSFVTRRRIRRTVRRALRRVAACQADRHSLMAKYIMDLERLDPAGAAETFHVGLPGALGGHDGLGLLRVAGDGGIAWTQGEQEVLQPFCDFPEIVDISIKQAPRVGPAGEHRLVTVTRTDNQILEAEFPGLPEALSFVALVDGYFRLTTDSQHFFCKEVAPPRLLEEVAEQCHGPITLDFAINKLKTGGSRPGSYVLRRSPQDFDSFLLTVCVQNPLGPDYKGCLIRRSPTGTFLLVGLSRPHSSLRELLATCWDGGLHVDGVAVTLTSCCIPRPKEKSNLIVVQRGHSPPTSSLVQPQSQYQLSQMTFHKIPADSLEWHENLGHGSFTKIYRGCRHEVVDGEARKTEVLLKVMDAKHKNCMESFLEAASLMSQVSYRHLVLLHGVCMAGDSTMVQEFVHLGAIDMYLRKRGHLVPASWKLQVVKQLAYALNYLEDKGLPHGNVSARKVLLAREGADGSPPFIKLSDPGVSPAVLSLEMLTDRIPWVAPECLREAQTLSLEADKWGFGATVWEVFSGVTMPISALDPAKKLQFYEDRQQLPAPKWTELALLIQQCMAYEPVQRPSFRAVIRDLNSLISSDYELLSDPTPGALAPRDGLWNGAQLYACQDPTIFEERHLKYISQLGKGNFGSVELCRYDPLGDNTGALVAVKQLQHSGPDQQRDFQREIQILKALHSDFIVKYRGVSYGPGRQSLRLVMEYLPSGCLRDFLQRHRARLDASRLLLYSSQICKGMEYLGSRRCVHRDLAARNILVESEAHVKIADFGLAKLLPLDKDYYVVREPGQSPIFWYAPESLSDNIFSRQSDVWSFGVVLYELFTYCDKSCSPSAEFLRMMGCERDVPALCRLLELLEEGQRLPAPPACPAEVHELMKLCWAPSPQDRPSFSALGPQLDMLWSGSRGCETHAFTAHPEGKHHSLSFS
Chain of RET (P07949 29-1114): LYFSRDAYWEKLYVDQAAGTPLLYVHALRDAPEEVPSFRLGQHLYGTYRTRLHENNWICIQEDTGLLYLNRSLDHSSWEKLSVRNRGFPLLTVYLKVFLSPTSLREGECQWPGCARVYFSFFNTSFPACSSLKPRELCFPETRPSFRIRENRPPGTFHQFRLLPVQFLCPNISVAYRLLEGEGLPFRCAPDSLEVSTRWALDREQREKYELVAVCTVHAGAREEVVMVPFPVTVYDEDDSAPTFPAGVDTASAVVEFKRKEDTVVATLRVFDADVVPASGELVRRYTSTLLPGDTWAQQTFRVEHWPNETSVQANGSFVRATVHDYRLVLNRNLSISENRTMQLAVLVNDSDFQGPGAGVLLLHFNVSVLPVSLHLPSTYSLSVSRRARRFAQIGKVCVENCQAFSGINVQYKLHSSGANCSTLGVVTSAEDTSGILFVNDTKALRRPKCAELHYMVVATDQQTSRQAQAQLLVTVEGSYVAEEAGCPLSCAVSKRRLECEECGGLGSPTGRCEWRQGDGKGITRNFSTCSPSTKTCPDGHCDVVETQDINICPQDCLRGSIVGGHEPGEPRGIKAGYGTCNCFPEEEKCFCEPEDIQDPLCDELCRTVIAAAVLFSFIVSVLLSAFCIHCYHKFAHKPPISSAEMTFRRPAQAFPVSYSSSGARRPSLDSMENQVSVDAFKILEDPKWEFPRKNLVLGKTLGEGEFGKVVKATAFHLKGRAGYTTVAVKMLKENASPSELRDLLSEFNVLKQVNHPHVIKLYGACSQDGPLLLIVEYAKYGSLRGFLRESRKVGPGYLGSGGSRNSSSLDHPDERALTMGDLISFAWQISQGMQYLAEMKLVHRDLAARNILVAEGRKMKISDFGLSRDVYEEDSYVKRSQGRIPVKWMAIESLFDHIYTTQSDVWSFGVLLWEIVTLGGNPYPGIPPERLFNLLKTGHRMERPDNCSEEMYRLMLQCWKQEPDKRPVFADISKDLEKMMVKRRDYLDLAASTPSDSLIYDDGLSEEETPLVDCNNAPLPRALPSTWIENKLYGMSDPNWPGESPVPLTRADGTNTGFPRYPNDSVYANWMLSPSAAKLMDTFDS
Chain of JAK2 (O60674 whole entry): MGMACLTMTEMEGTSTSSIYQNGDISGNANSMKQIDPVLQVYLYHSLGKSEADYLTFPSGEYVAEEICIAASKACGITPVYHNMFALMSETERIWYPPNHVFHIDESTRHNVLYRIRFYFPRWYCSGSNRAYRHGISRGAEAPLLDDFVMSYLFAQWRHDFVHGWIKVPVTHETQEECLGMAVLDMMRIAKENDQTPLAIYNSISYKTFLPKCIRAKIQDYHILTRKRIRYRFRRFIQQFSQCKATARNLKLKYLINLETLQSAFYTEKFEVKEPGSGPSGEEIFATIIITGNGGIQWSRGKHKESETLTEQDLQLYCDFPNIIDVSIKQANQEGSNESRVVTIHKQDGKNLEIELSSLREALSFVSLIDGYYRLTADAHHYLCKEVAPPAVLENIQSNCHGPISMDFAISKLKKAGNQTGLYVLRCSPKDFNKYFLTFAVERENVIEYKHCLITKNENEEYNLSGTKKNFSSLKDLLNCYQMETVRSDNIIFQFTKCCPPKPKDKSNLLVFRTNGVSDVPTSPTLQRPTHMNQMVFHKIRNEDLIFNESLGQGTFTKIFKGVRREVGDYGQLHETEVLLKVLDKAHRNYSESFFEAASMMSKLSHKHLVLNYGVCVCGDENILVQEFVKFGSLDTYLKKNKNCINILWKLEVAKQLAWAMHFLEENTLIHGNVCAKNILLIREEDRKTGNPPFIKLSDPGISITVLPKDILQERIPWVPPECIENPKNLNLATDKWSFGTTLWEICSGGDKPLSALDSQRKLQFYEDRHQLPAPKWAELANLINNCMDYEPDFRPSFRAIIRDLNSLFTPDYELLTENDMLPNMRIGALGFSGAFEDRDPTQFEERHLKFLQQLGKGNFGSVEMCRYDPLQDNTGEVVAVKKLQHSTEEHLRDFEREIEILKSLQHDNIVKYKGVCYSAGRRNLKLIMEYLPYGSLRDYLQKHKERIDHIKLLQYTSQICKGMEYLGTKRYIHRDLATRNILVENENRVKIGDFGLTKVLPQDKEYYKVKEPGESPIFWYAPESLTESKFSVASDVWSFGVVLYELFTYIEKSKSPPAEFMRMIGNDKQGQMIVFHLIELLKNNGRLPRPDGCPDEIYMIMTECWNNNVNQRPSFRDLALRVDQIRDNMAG
Chain of CDK16/CyclinY (Q00536 whole entry): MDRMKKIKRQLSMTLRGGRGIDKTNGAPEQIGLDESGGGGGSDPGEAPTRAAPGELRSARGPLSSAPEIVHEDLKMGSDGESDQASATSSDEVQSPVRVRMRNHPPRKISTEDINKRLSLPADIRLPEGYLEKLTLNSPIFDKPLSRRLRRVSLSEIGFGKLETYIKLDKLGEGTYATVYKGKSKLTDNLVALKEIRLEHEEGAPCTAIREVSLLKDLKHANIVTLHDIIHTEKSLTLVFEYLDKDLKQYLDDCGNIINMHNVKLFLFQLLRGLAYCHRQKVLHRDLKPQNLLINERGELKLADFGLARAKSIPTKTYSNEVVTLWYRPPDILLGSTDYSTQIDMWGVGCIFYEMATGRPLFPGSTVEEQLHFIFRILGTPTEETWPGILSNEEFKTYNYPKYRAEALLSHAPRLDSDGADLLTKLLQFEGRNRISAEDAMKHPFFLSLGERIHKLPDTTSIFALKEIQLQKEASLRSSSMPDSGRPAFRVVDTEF
Chain of CDK16/CyclinY (Q8ND76 whole entry partner): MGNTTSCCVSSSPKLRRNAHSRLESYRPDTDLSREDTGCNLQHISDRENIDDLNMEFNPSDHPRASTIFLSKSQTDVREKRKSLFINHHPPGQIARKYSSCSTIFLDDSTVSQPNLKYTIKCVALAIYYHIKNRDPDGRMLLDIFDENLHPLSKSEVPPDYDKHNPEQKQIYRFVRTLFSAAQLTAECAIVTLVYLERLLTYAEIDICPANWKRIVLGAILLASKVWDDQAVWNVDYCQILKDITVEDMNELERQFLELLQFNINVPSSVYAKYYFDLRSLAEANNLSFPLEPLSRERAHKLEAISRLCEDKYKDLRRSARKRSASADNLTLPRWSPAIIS
Chain of CDK5/p25NCK (Q00535 whole entry): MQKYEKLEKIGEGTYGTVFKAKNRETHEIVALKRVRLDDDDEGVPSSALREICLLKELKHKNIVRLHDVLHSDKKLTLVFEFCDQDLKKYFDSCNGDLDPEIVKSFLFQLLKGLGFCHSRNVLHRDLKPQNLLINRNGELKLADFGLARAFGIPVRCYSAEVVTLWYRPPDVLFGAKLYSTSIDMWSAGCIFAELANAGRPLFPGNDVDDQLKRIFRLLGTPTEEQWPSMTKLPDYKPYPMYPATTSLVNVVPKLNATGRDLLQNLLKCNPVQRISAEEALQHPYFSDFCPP
Chain of CDK5/p25NCK (Q15078 99-307 partner limits assumed): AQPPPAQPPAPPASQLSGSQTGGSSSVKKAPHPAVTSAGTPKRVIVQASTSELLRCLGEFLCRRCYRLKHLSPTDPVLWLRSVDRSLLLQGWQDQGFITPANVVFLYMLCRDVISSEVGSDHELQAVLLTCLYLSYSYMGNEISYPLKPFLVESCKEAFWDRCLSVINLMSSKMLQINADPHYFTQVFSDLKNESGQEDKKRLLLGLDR

With `Clc1cnc2nc1NCCCCCNCc1cccc(c1)N2` [Compound 8, 1^5-chloro-2,5,11-triaza-1(2,4)-pyrimidina-3(1,3)-benzenacyclodecaphane], the inhibition at 0.01 µM in test [1] was less than 25%; in test [2], 25 to 49%; in [3], less than 25%; in [4], less than 25%; in test [5] it was less than 25%; in [6] it was less than 25%. For the same compound, the inhibition at 0.01 µM in [7] was less than 25%. In addition, the inhibition at 0.1 µM in test [8] is less than 50%; in [9], 50 to 75%; in [10], less than 50%; in test [11], 50 to 75%; in test [12], 50 to 75%; in test [13], less than 50%. Also, the values for the inhibition at 0.1 µM in test [14] and in test [15] were 50 to 75% and less than 50%, respectively.
